# Source: US20080311657A1, “Killing Human Lymphoma and Leukemia Cancer Cells and Tcr-Activated Normal Human Cells By Dopamine D1r Agonists” (priority 2005, published 2008)
# Where “and” joins values, the source holds several entries; their conditions need not be identical. Equal entries are not always repeated. Entries after “also recorded” stand apart in the source; their conditions may differ.
# Tests used:
# [1] = tested on: TCR-activated normal human T-cells; test: Cell death by LDH release (CytoTox 96); format: cell-based; conditions: FDM 10^−4M-10^−10M, added four times during 1 hour; methanesulfonate
# Experimental: Non-tissue culture treated 24-well plates (Falcon, Franklin Lakes, N.J.) were coated overnight at 4° C. with anti-CD3 and anti-CD28 monoclonal antibodies (mabs) (BD Pharmingen, San Jose, Calif.); ([…] in PBS). The wells were then washed with PBS, blocked for 1 hour at 37° C. (PBS/1% BSA), and washed again. The freshly purified normal human T-cells were resuspended in their respective fresh media and seeded in the anti-CD3/CD28 coated wells (1×10^6 per well), and the plates were incubated for 72 hours (37° C., humidified incubator, 5% CO2). Then, the cells and their media were collected from each well, transferred into 50 ml tubes, centrifuged (1200 rpm, 10 minutes) and both the TCR-activated cells and their culture media were collected and transferred into clean separate tubes.
# (§1) Cell viability was tested afterwards.
# [2] = patients receiving the 48 hour FDA-approved infusion; cited from earlier work
# [3] = tested on: Human chronic myelogenous leukemia cells (CML) (K-562); test: Number of living cells counted by flow cytometry (FACSort) after D1R agonist; format: cell-based; conditions: added four times during 1 hour, counted 3 days later
# Experimental: (§2) Human chronic myelogenous leukemia cells (CML) (K-562) were seeded in 96 well plates (0.5 ml per well of 0.5 million cells/ml) and A 77636 hydrochloride was added and diluted 1:00 into the wells at starting concentrations of 10^−1M-10^−4M, so that the final concentration range tested was 10^−3M-10^−6M. Afterwards, the microtiter plates were placed in an incubator (37° C., humidified incubator, 5% CO2) for 3 days. Then, the number of living cells was evaluated by flow cytometry (the cells were counted by FACsort for a fixed time length of 1 min, in which 100 microliter of each sample was tested).
# as §2, with “68930” for “77636”
# as §2, with “SKF 38393 hydrobromide” for “A 77636 hydrochloride”
# (§3) Human chronic myelogenous leukemia cells (CML) (K-562) were seeded in 96 well plates (0.5 ml per well of 0.5 million cells/ml) and A 77636 hydrochloride was added and diluted 1:00 into the wells, at a fixed starting concentration of 10^−2M, so that the final concentration tested was 10^−4M. The experiment was designed to test the effect of exposing the cells to the D1R agonist for 1 min, 15 min, 1 hr or 72 hr. Thus, 1 min, or 15 min or 1 hr after the addition of the D1R agonist, the corresponding cells were transferred into tubes, centrifuged (1000 rpm for 10 min), and the supernatant was removed. […] Thus, its medium was not replaced, and these cells and remained as such in the incubator for 72 hr. At the end of the 72 hr incubation, the number of living cells was evaluated by flow cytometry (the cells were counted by FACsort for a fixed time length of 1 min, in which 100 microliter of each sample was tested).
# as §1
# (§4) For this purpose, the Jurkat T-cell leukemia line, the HuT-78 human T-lymphoma (cutaneous “Sezary” T-lymphoma) line, and the K-562 human Chronic-Myeloid Leukemia (CML) and Daudi Human B-lymphoma (Burkitt's lymphoma) lines were seeded in tissue culture wells (0.5 million cells/0.5 ml/well).
# (§5) Cell survival/death was evaluated 3 days later by counting the number of living cells, using flow cytometry.
# The effect of dopamine itself (that can of course activate all its D1R-5 receptors) was also tested. All of these molecules were tested at a similar concentration (10^−4 M). […] The specificity and restriction of the effect to the D1R is also seen in Tables 7 and 8.
# [4] = tested on: Human T-Cell Lymphoma (HuT-78); test: Cell death by LDH release (CytoTox 96); format: cell-based; conditions: FDM 10^−4M-10^−12M, added four times during 1 hour
# [5] = tested on: Human Burkitt's B-Cell Lymphoma (Daudi); test: Cell death by LDH release (CytoTox 96); format: cell-based; conditions: FDM 10^−4M-10^−12M, added four times during 1 hour
# Experimental: as §1
# [6] = tested on: Human T-cell leukemia (Jurkat); test: Cell death by LDH release (CytoTox 96); format: cell-based; conditions: FDM 10^−4M-10^−12M, added four times during 1 hour
# Experimental: as §1
# [7] = tested on: Human Chronic Myeloid Leukemia (CML, K-562); test: Cell death by LDH release (CytoTox 96); format: cell-based; conditions: FDM 10^−4M-10^−12M, added four times during 1 hour
# [8] = tested on: Human T-cell leukemia (Jurkat) cells; test: Number of living cells counted by flow cytometry (FACSort) after D1R agonist; format: cell-based; conditions: added four times during 1 hour, counted 3 days later
# Experimental: Afterwards, the microtiter plates were placed in an incubator (37° C., humidified incubator, 5% CO2) for 3 days. Then, the number of living cells was evaluated by flow cytometry (the cells were counted by FACsort for a fixed time length of 1 min, in which 100 microliter of each sample was tested). Of note, A 77636 hydrochloride is an orally-active D1R agonist, according to the manufacturer (Tocris).
# Afterwards, the microtiter plates were placed in an incubator (37° C., humidified incubator, 5% CO2) for 3 days. Then, the number of living cells was evaluated by flow cytometry (the cells were counted by FACsort for a fixed time length of 1 min, in which 100 microliter of each sample was tested).
# as §3, with “The” for “Human chronic myelogenous leukemia cells (CML) (K-562) were seeded in 96 well plates (0.5 ml per well of 0.5 million cells/ml) and A 77636 hydrochloride was added and diluted 1:00 into the wells, at a fixed starting concentration of 10^−2M, so that the final concentration tested was 10^−4M. The”, “min);” for “min),”
# as §1, §4, §5
# [9] = tested on: Human cutaneous Sezary T-lymphoma cells (HuT-78); test: as above; format: cell-based; conditions: added four times during 1 hour, counted 3 days later
smiles,measurement,setting,value
"CS(=O)(=O)O.Oc1ccc(C2CNCCc3c2cc(O)c(O)c3Cl)cc1 (stereo not drawn) [FDM, 6-chloro-2,3,4,5-tetrahydro-1-(4-hydroxyphenyl)-[1H]-3-benzazepine-7,8-diol methanesulfonate]","Killing evident by LDH release (FIG. 8), in words",[1],"marked death; also recorded: kills human TCR-activated T-cells, in a dose dependent manner"
same,Approximate steady state concentration in the circulation,[2],~10^−8 M
same,% Dead Cells,[3]; FDM 10^−4M,100%
same,No. of Living Cells,[3]; FDM 10^−4M,21
same,% Dead Cells,[3]; FDM 10^−6M,34%
same,No. of Living Cells,[3]; FDM 10^−6M,18680
same,No. of Living Cells,[3]; FDM 10^−8M,21137
same,% Dead Cells,"[3]; FDM 10^−8M, methanesulfonate",25% and 26%
same,% Dead Cells,[3]; FDM 10^−10M,25%
same,No. of Living Cells,[3]; FDM 10^−10M,21476
same,% Dead Cells,[3]; FDM 10^−12M,33%
same,No. of Living Cells,[3]; FDM 10^−12M,19250
same,"Killing evident by LDH release (FIG. 3), in words",[4],kills human cutaneous Sezary T-cell lymphoma in a dose dependent manner
same,"Killing evident by LDH release (FIG. 5), in words",[5],kills human Burkitt's B-lymphoma in a dose dependent manner
same,"Killing evident by LDH release (FIG. 2), in words",[6],kills human T-cell leukemia in a dose dependent manner
same,"Killing evident by LDH release (FIG. 4), in words",[7],kills human chronic myelogenous leukemia (CML) in a dose dependent manner
same,% Dead Cells,[8]; FDM 10^−4M,~100%
same,No. of Living Cells,[8]; FDM 10^−4M,4
same,% Dead Cells,[8]; FDM 10^−6M,18%
same,No. of Living Cells,[8]; FDM 10^−6M,15938
same,No. of Living Cells,[8]; FDM 10^−8M,7451
same,% Dead Cells,"[8]; FDM 10^−8M, methanesulfonate",62%
same,% Dead Cells,[8]; FDM 10^−10M,52%
same,No. of Living Cells,[8]; FDM 10^−10M,9472
same,% Dead Cells,[8]; FDM 10^−12M,46%
same,No. of Living Cells,[8]; FDM 10^−12M,10568
same,% Dead Cells,[9]; FDM 10^−4M,99%
same,No. of Living Cells,[9]; FDM 10^−4M,213
same,% Dead Cells,[9]; FDM 10^−6M,28%
same,No. of Living Cells,[9]; FDM 10^−6M,17023
same,No. of Living Cells,[9]; FDM 10^−8M,16080
same,% Dead Cells,"[9]; FDM 10^−8M, methanesulfonate",32%
same,% Dead Cells,[9]; FDM 10^−10M,38%
same,No. of Living Cells,[9]; FDM 10^−10M,14728
same,% Dead Cells,[9]; FDM 10^−12M,46%
same,No. of Living Cells,[9]; FDM 10^−12M,12662
